Entries after “also recorded” stand apart in the source; their conditions may differ.
Tests used:
CD-1 mice [1] = conditions: 0.1 mg/kg, intravenous; ref [15],[16]; cited from earlier work
Procedure: (§1) The hot plate test is a most simple for TRPV1 inhibitor characterization since TRPV1 play significant role in temperature sensation. Effect of APHC1 and APHC3 on thermal nociception at dose 0.1 mg/kg after intramuscular, intraperitoneal and intravenous administration was measured before. […] Here we assessed changes in thermal nociception to a noxious thermal stimuli elicited by different doses of APHC1 and APHC3 to determine minimal effective dose. Intravenous administration ...

ASIC3 = ASIC3 activity, oocyte electrophysiology or agonist-induced fluorescence readout; assay type: cell-based; conditions: concentrations of up to 2 μM; data not shown
TRPA1 = TRPA1 activity, oocyte electrophysiology or agonist-induced fluorescence readout; assay type: cell-based; conditions: concentrations of up to 2 μM; data not shown
Source text: The formalin test is a complex in vivo model of pain where TRPV1’s function is more integrative than perceptive. In the mouse, intraplantar injections of formalin produce a biphasic behavioral reaction. The molecular mechanisms underlying formalin-induced pain are based on tissue damage, non-specific activation of nociceptors and direct activation of TRPA1 receptors (measured in phase I) that drive the local neurogenic inflammation and CNS sensitization (measured in phase 2). APHC1 and APHC3 were tested on TRPA1 for inhibitory/activation effects.

CD-1 mice [2] = assay: pain models in vivo, overall; set-up: species or system mouse; conditions: i.v.
Procedure: (§2) All experiments were performed in accordance with the recommendations in the “Principles of Laboratory Animal Care” and after approval by the Animal Care and Use Committee of the Branch of the IBCh RAS (Pushchino, Russia). Adult male CD-1 mice (Animal Breeding Facility Branch of Shemyakin-Ovchinnikov Institute of Bioorganic Chemistry, Russian Academy of Sciences, Pushchino, Russia) weighing 20–25 g were used. Animals were allowed to acclimate in the laboratory for at least five days. Mice were housed at room temperature (23 ± 2 °C) on a 12 h light–dark cycle with food and water available ad libitum. Polypeptides or vehicle was administered intravenously 15 min before testing.
(§3) The significance of the data was determined by analysis of variance (ANOVA) followed by Tukey’s test. Data are presented as mean ± S.E.

CD-1 mice [3] = assay: capsaicin-induced acute pain test; assay type: in vivo, mouse; conditions: n = 9; for pain-related behavior after capsaicin, reduction: 0.1 mg/kg i.v. 15 min before intraplantar capsaicin (3 µg/10 µL), "~44% of response"; for pain-related behavior after capsaicin, in words: 0.1 mg/kg i.v., vs saline
Source text: Because capsaicin is a selective agonist of the TRPV1 receptor, we tested the efficacy of APHC1 and APHC3 as TRPV1 receptor antagonists using the capsaicin-induced pain model. Intraplantar injection of capsaicin evokes pain-related behavior such as licking and shaking the injected paw. TRPV1 knockout mice are insensitive to the capsaicin test and most antagonists that block capsaicin-induced currents in vitro also block capsaicin induced pain-related behavior in mice.
as §2, §3
Intraplantar injection of capsaicin (3 µg/10 µL in 10% ethanol/90% saline) was used to elicit capsaicin-induced acute pain [36]. Immediately after the capsaicin injection, mice were placed inside glass cylinders for observation. Intraplantar injection of capsaicin evoked licking and shaking of the injected paw in mice. The duration of episodes of licking and paw shaking were recorded.

CD-1 mice [4] = assay: hot plate test; assay type: in vivo, mouse
Procedure: as §1, with “[…] Both polypeptides reached maximal effect at 0.1 mg/kg.” for “Intravenous administration ...”
as §2, §3
Sensitivity to a thermal stimulus was determined by hind paw withdrawal or licking latency using a Hot-Plate Analgesia Meter (Columbus Instruments, Columbus, OH, USA) at 55 °C.

CD-1 mice [5] = assay: acetic acid-induced writhing (abdominal constriction test of visceral pain); assay type: in vivo, mouse
Procedure: TRPV1 can be activated by low pH stimuli and is therefore involved in pain caused by acidification, which can be measured in the pain behavior model of acetic acid-induced writhing. Intraperitoneal administration of acetic acid provokes a very stereotyped behavior in the mouse. The constriction response is considered the definitive measure of visceral pain intensity. Animals were pretreated with polypeptides 15 min before acetic acid injection.
as §2, §3
Separate groups of mice were injected with 0.6% acetic acid in saline (10 mL∙kg^−1 intraperitoneally (i.p.)). Mice were immediately placed inside transparent glass cylinders, and the number of writhes was recorded for 15 min.

CD-1 mice [6] = assay: CFA-induced thermal hyperalgesia; assay type: in vivo, mouse; conditions: i.v., n = 9; for reversal of CFA-induced thermal hyperalgesia: 0.1-0.01 mg/kg (dose of this value not stated), 24 h after CFA, 53 °C; for CFA-induced thermal hyperalgesia, in words: 0.1-0.01 mg/kg, vs saline
Source text: CFA-induced thermal hyperalgesia depends on TRPV1 activation; this was shown in TRPV1-deficient mice and using TRPV1 antagonists. CFA-induced thermal hyperalgesia is a complex process where different inflammatory pathways acting via several mechanisms lower the TRPV1 temperature threshold and influence thermal sensitivity. CFA-treated mice developed thermal hyperalgesia in the injected paw, this manifested as a decrease in the latency to paw withdrawal in response to thermal stimuli (Figure 4c).
as §2, §3
Complete Freund’s adjuvant suspended in an oil/saline (1:1) emulsion, was injected into the plantar surface of the left hind-paw of mice (20 μL/paw). Control mice received 20 μL of saline (i.pl.). Injected paw withdrawal latencies in response to thermal stimulation (53 °C) were measured 24 h after CFA injection.

CD-1 mice [7] = assay: core body temperature (rectal measuring); assay type: in vivo, mouse; conditions: for change in core body temperature: n = 7; for core body temperature, in words: rectal measuring, mice, vs saline
Procedure: Admittedly, hyperthermia is considered a critical side effect of TRPV1 antagonists, so we assessed the effect of the polypeptides on body temperature. Polypeptides were administered intravenously at doses 0.1 mg/kg and 0.5 mg/kg, and rectal temperature was monitored (Figure 5a,b).
as §2, §3
The MLT1404 Rectal Temperature Probe and Chart Power Lab (ADInstruments Inc., Colorado Springs, CO, USA) was used to record body temperature. During recording, the animals were placed in a MLA5018 Rodent Restrainer (ADInstruments Inc., Colorado Springs, CO, USA). The adaptation period was 20 min. Core body temperature was recorded every minute for 20 min before and 100 min after test compound administration. AMG9810 was dissolved in DMSO and was injected intraperitoneally.

TRPV3 = TRPV3 activity, oocyte electrophysiology or agonist-induced fluorescence readout; assay type: cell-based; conditions: concentrations of up to 2 μM; data not shown
[8] = i.v., 15 min before test, 55 °C, n = 9 per group, vs saline
[9] = 0.1 mg/kg i.v., n = 9, vs saline

Substance | paw withdrawal latency, hot plate, previous studies (CD-1 mice [1]) | agonistic/antagonistic activity at ASIC3 (ASIC3) | agonistic/antagonistic activity at TRPA1 (TRPA1) | doses with antinociceptive and analgesic activity in vivo (CD-1 mice [2]) | pain-related behavior after capsaicin, reduction (CD-1 mice [3]) | pain-related behavior after capsaicin, in words (CD-1 mice [3]) | paw withdrawal latency, hot plate (CD-1 mice [4]; [8]) | dose at which maximal effect is reached, hot plate (CD-1 mice [4]; i.v., 55 °C, n = 9) | number of writhes, in words (CD-1 mice [5]; [9]) | reversal of CFA-induced thermal hyperalgesia (CD-1 mice [6]) | CFA-induced thermal hyperalgesia, in words (CD-1 mice [6]) | core body temperature, in words (CD-1 mice [7]) | agonistic/antagonistic activity at TRPV3 (TRPV3) | other results
APHC3: polypeptide from Heteractis crispa highly homologous to APHC1, differing in four of 56 amino acids; produced recombinantly in E. coli (GSICLEPKVVGPCTAYFPRFYFNSETGKCTPFIYGGCEGNGNNFETLRACRGICRA; left off: TRX, end not stated, cleaved) | significantly prolonged paw withdrawal latency | neither agonistic nor antagonistic activity | neither agonistic nor antagonistic activity | 0.01 to 0.1 mg/kg | ~ 44% | significantly reduced the behavioral response to capsaicin; also recorded: significantly reduced pain-related behavior | Dose dependent inhibition of thermal nociception; also recorded: significantly increased paw withdrawal latency | 0.1 mg/kg | significantly reduced the number of writhes | 34% | Dose dependent inhibition of CFA-induced thermal hyperalgesia; also recorded: significantly reduced thermal hyperalgesia | did not cause hyperthermia; also recorded: modest hypothermic effect; also recorded: moderate decrease in core body temperature | neither agonistic nor antagonistic activity | inhibition of number of writhes (CD-1 mice [5]; 0.1 and 0.5 mg/kg i.v. 15 min before 0.6% acetic acid i.p., n = 9): 50%; change in core body temperature (CD-1 mice [7]; 0.1 mg/kg i.v., 60 min after administration): −0.6 °C; change in core body temperature (CD-1 mice [7]; 0.5 mg/kg i.v., not statistically significant): −0.4 °C
APHC1: polypeptide modulator of TRPV1 from sea anemone Heteractis crispa; homologous to BPTI/Kunitz type serine-protease inhibitors; produced recombinantly in E. coli (GSICLEPKVVGPCTAYFRRFYFDSETGKCTVFIYGGCEGNGNNFETLRACRAICRA; left off: TRX, end not stated, cleaved) | significantly prolonged paw withdrawal latency | neither agonistic nor antagonistic activity | neither agonistic nor antagonistic activity | 0.01 to 0.1 mg/kg | ~ 44% | significantly reduced the behavioral response to capsaicin; also recorded: significantly reduced pain-related behavior | Dose dependent inhibition of thermal nociception; also recorded: significantly increased paw withdrawal latency | 0.1 mg/kg | did not produce a statistically significant effect; also recorded: did not significantly inhibit the response to acetic acid | ~ 80% | Dose dependent inhibition of CFA-induced thermal hyperalgesia; also recorded: significantly reduced thermal hyperalgesia; also recorded: clearly dose-dependent | did not cause hyperthermia; also recorded: significantly decreased core body temperature in both tested doses; also recorded: moderate decrease in core body temperature | neither agonistic nor antagonistic activity | paw withdrawal latency, hot plate (CD-1 mice [4]; 0.001 mg/kg i.v., data not shown): did not prolong paw withdrawal latency; antinociception in hot plate test (CD-1 mice [4]; 0.01 mg/kg i.v., 55 °C, n = 9): produced antinociception; number of writhes, in words (CD-1 mice [5]; 0.5 mg/kg i.v.): significantly reduced number of writhes; change in core body temperature (CD-1 mice [7]; 0.1 mg/kg i.v., in the 30 min after administration, stayed at this level): −0.8 °C; change in core body temperature (CD-1 mice [7]; 0.5 mg/kg i.v., at the end of data acquisition time): −2.1 °C

Source: PMC3877906, “Polypeptide Modulators of TRPV1 Produce Analgesia without Hyperthermia” (Marine Drugs, 2013)
